Experiments:
[1] = tested on: androgen receptor (AR)-positive prostate and breast cancer cells; assay: Cell viability screening, panel of 155 normal and cancer cell lines; format: cell-based; conditions: Homo sapiens, 120 h, 5 days, Figure 1G
Procedure: (§1) Cells were seeded in 96-well plates and incubated at 37°C with 5% CO2 overnight. A series of compound dilutions were added into the cells. After 5 days incubation, cell proliferation was tested using the CellTiter-Glo assay (Promega) according to the manufacturer’s protocol. Luminescence was measured using the Infinite M1000 Pro plate reader (Tecan). Data analysis was conducted using GraphPad Prism software.

[2] = tested on: normal and non-neoplastic cells; assay: as above; format: cell-based; conditions: Homo sapiens, 120 h, 5 days, Figure 1G
Procedure: as §1

prostate cancer cells = assay: Cell viability, prostate cancer cells; format: cell-based; conditions: Homo sapiens, Figure 3A
Procedure: as §1

[3] = Pharmacokinetic profile in CD-1 mice; format: in vivo; conditions: plasma, CD-1 mouse; for AUC: read-out: AUC(0-⊠)
[4] = Pharmacokinetic profile in Sprague Dawley rats; format: in vivo, rat; conditions: Sprague-Dawley, rat, plasma, SD rats; for AUC(0-t): read-out: AUC(0-t); for Tmax: read-out: Tmax
[5] = tested on: castrated VCaP xenograft (VCaP-CRPC); assay: VCaP castration-resistant prostate cancer xenograft efficacy; format: in vivo, mouse; conditions: i.v. 30 mg/kg 3x/week, 18 days
Procedure: (§2) Six-week-old male CB17SCID mice obtained from Charles River (Stock # 236), were used to establish subcutaneous tumors on both dorsal flanks. Tumor dimensions were measured biweekly using digital calipers, applying the formula (π/6) (L × W^2), where L and W represent tumor length and width, respectively. At the study conclusion, mice were euthanized, and tumors were excised and weighed. The University of Michigan Institutional Animal Care and Use Committee (IACUC) approved all in vivo studies.
For the VCaP castration-resistant tumor model, 3×10^6 VCaP cells were subcutaneously injected into both dorsal flanks of mice using a serum-free medium mixed with 50% Matrigel (BD Biosciences). Upon tumors reaching palpable size (∼200 mm^3), animals underwent castration. When tumors regrew to their pre-castration size, mice were randomized for treatment with 30 mg/kg YJ9069 or vehicle via intravenous injection or 100 mg/kg YJ1206 or vehicle, […]

WA74 PDX = assay: WA74 patient-derived xenograft efficacy; format: in vivo, mouse
Procedure: as §2
(§3) WA74 PDX model was developed at the University of Michigan during collection of a rapid autopsy case as part of the Michigan Legacy Tissue Program (MLTP). PC310 PDX model was obtained from Erasmus Medical Center, Rotterdam, the Netherlands. Both PDX lines were propagated in male CB17SCID mice by surgically implanting 2 mm^3 tumor fragments, coated with 100% Matrigel, into both flanks of mice. When tumors reached approximately 200 mm^3, mice were randomized into treatment groups. These groups received either 30 mg/kg YJ9069 via intravenous injection or 100 mg/kg YJ1206 by oral gavage, both administered three times per week, with or without 15 mg/kg uprosertib by oral gavage five days per week for 3–4 weeks. In accordance with IACUC guidelines, the maximum tumor size was limited to 2.0 cm in any dimension, and mice were euthanized if xenografts reached this endpoint.

PC310 PDX = assay: PC310 patient-derived xenograft efficacy; format: in vivo, mouse; conditions: i.v. 30 mg/kg 3x/week
Procedure: as §2, §3

[6] = Toxicity study in CD-1 immune-competent mice; format: in vivo, mouse
[7] = Body weight of treated animals in tumor models; format: in vivo, mouse; conditions: all tumor models (castrated VCaP, WA74 PDX, PC310 PDX), i.v. 30 mg/kg
Procedure: as §2
For the VCaP castration-resistant tumor model, 3×10^6 VCaP cells were subcutaneously injected into both dorsal flanks of mice using a serum-free medium mixed with 50% Matrigel (BD Biosciences). Upon tumors reaching palpable size (∼200 mm^3), animals underwent castration. When tumors regrew to their pre-castration size, mice were randomized for treatment with 30 mg/kg YJ9069 or vehicle via intravenous injection or 100 mg/kg YJ1206 or vehicle, with or without 15 mg/kg uprosertib by oral gavage. Treatments were administered three times weekly for three to four weeks.
For the 22Rv1 castration-resistant tumor model, mice underwent castration and then 12 days of recovery. Subsequently, 1 × 10^6 22Rv1 cells were subcutaneously injected into both dorsal flanks using a serum-free medium with 50% Matrigel (BD Biosciences). […]

Which IC50 [1] does the source give for `O=C1CCC(N2C(=O)c3cccc(OCC(=O)N4CCN(c5ccc(N(C(=O)NCc6ccccc6)C6CCC(Nc7ncc8ccccc8n7)CC6)cc5)CC4)c3C2=O)C(=O)N1` (stereo not shown) [YJ9069] here?
Its IC50 is under 500 nM.

What about the IC50 [2] of the same compound?
Its IC50 is over 10000 nM.

What about the IC50 (prostate cancer cells) of the same compound?
Its IC50 is under 200 nM.

What about the AUC(0-t) ([3]; iv, i.v. 2.5 mg/kg) of the same compound?
Its AUC(0-t) is 3150 ng·h/mL.

What about the Cmax ([3]; iv, i.v. 2.5 mg/kg) of the same compound?
Its Cmax is 3650 ng/mL.

And the Tmax ([3]; iv, i.v. 2.5 mg/kg)?
The Tmax was 0.08 h.

And the clearance ([3]; iv, i.v. 2.5 mg/kg)?
Its clearance is 13.1 mL/min/kg.

What about the half-life ([3]; iv, i.v. 2.5 mg/kg) of the same compound?
Its half-life is 5.23 h.

And the AUC ([3]; iv, i.v. 2.5 mg/kg)?
The AUC was 3220 ng·h/mL.

What about the bioavailability ([3]; oral, p.o. 10 mg/kg vs i.v. 2.5 mg/kg, read-out: F% (oral bioavailability)) of the same compound?
The bioavailability was 1.02%.

What about the AUC(0-t) ([3]; po, p.o. 10 mg/kg) of the same compound?
Its AUC(0-t) is 128 ng·h/mL.

And the Cmax ([3]; po, p.o. 10 mg/kg)?
The Cmax was 55 ng/mL.

And the Tmax ([3]; po, p.o. 10 mg/kg)?
The Tmax was 0.25 h.

And the half-life ([3]; po, p.o. 10 mg/kg)?
The half-life was 2.44 h.

And the AUC ([3]; po, p.o. 10 mg/kg)?
Its AUC is 145 ng·h/mL.

What about the Cmax ([4]; iv, i.v. 2.5 mg/kg) of the same compound?
Its Cmax is 4130 nM.

And the clearance ([4]; iv, i.v. 2.5 mg/kg)?
Its clearance is 14.1 mL/min/kg.

What about the half-life ([4]; iv, i.v. 2.5 mg/kg) of the same compound?
The half-life was 4.39 h.

And the AUC ([4]; iv, i.v. 2.5 mg/kg, read-out: AUC(0-))?
The AUC was 2970 ng·h/mL.

What about the AUC(0-t) ([4]; iv, i.v. 2.5 mg/kg) of the same compound?
Its AUC(0-t) is 2930 ng·h/mL.

And the Tmax ([4]; iv, i.v. 2.5 mg/kg)?
Its Tmax is 0.08 h.

What about the Cmax ([4]; oral 10 mg/kg) of the same compound?
Its Cmax is 6 nM.

And the bioavailability ([4]; oral 10 mg/kg vs i.v. 2.5 mg/kg, read-out: F(%) (bioavailability by oral gavage))?
The bioavailability was 0.04%.

And the AUC(0-t) ([4]; oral 10 mg/kg)?
Its AUC(0-t) is 5.06 ng·h/mL.

And the Tmax ([4]; oral 10 mg/kg)?
Its Tmax is 1.56 h.

And the “treated animals with tumor regression exceeding 50%” value ([5]; VCaP-CRPC)?
Its value is 73%.

What about the “partial response (PR), waterfall plot (RECIST)” value (from here on “partial response (PR)”) ([5]; castrated VCaP) of the same compound?
Its value is 82%.

And the “stable disease (SD), waterfall plot (RECIST)” value (“stable disease (SD)” below) ([5]; castrated VCaP)?
Its value is 18%.

And the “anti-tumor effect (regression)” value (WA74 PDX; 30 mg/kg, 3 times/week, 21 days)?
Its value is “regression in all animals”.

And the “partial response (PR)” value (WA74 PDX; i.v. 30 mg/kg 2x/week)?
Its value is 43%.

What about the “stable disease (SD)” value (WA74 PDX; i.v. 30 mg/kg 2x/week) of the same compound?
Its value is 43%.

What about the “partial response (PR)” value (WA74 PDX; i.v. 30 mg/kg 3x/week) of the same compound?
Its value is 100%.

What about the “progressive disease (PD), waterfall plot (RECIST)” value (PC310 PDX) of the same compound?
Its value is 63%.

And the “stable disease (SD)” value (PC310 PDX)?
Its value is 31%.

And the toxicity ([6]; CD-1 female mice)?
Its toxicity is “no significant toxicity was observed”.

And the “genitourinary (GU) weight” value ([6]; CD-1 male mice)?
The value was “decrease in genitourinary (GU) weight”.

And the “serum chemistry and complete blood analyses” value ([6]; CD-1 male mice)?
The value was “no significant changes”.

And the body weight loss ([6]; CD-1 male mice, doses of 30 mg/kg and 50 mg/kg, 3x/week)?
Its body weight loss is 10%.

What about the toxicity in vivo ([6]; administered intravenously) of the same compound?
The toxicity in vivo was “mild to intermediate toxicity”.

What about the “body weight loss in the treated animals” value [7] of the same compound?
The value was “less than 20%”.
